Data from patent US20240238268A1, “TREATMENTS AND METHODS FOR TREATING ALZHEIMER'S DISEASE” (Board of Supervisors of Louisiana State University and …, priority 2021, published 2024).

What was measured:
GFAP = GFAP protein level in brain, capillary-based immunoassay; format: in vivo, mouse; details: aged 3xTg-AD female mice; TP-064 30 mg/kg, 7 days, IP or PRMT4-AAV
Description: Leukocytes velocity measurements were performed by linescans (512 lines/sec). *p<0.05 compared to aged 3xTg-AD male or C57 female evaluated by unpaired t-test. FIGS. 18A and 18B are capillary-based immunoassay and associated graphs showing PRMT4 inhibitor (TP-064) or AAV knockdown of PRMT4 reduced GFAP levels in aged 3xTg-AD female mice. Glial fibrillary acidic protein (GFAP, 55 kDa) was increased in aged 3xTg-AD female mice v. C57, which indicates neuroinflammation, but reversed with TP-064 (30 mg/kg, 7 days, IP) or PRMT4-AAV treatment in cortex, shown in FIG. 18A, and hippocampus, shown in FIG. 18B. Protein level was measured by capillary-based immunoassay and normalized to total protein. *p<0.05 as compared to C57, #p<0.05 v. 3xTg-AD evaluated by one-way ANOVA with Tukey's post-hoc analyses.
Capillary-phoresis immunoassay via ProteinSimple®: Quantification of all protein targets was achieved using Simple Western analysis in a Jess™ apparatus per the manufacturer's protocol (ProteinSimple, Bio-techne, Minneapolis, MN). […] Following homogenization and centrifugation (10,000×g, 5 min, 4° C.), protein concentration was determined in tissue protein supernatant samples using DC Protein Assay (Cat. No. 5000112, Bio-Rad Laboratories, Hercules, California) according to manufacturer instructions. […]

PRMT4 = molecular target: T1, PRMT4 (Mus musculus, UniProt Q9WVG6); experiment: PRMT4 protein level in brain, capillary-based immunoassay; format: in vivo; details: IP
T1 construct: Protein was extracted from dissected tissue in an extraction buffer; from tissue; host or cells: mouse brain (cortex, hippocampus, whole brain lysate) of 3xTg-AD and C57BL/6J mice
T1 sequence (Q9WVG6 1-608): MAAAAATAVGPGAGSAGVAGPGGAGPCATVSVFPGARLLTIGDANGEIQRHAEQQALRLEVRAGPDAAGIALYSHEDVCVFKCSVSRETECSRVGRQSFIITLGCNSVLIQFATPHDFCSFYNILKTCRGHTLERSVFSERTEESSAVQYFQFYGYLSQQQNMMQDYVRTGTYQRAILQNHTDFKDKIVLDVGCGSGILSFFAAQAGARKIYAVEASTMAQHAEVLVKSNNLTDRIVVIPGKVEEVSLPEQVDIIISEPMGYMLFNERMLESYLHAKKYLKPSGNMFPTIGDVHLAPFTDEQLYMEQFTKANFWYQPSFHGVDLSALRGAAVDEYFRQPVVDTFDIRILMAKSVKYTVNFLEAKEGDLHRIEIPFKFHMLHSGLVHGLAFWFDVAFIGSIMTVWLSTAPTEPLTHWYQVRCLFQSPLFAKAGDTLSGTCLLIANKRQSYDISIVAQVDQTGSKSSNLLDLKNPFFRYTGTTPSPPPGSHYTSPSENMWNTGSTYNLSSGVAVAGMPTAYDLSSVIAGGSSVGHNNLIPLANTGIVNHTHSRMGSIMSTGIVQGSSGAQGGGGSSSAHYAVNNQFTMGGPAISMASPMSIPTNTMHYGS
Description: Dosage, delivery of TP-064: PRMT4 specific inhibitor (TP-064, 30 mg/kg/day for 7 days, IP) was administered once daily for 7 or 21 days to young (4-6 months) and aged (9-12 months) C57BL/6J and 3xTg-AD, male and female mice. The inventors have found a dose response curve that evidences that 30 mg/kg (I.P.) of TP-064 decreases PRMT4 (FIG. 10A). TP-064 was dissolved in 100% DMSO, diluted in 0.9% saline (total injection volume=100 μL, ˜1.5% DMSO in mouse), greater than 5% DMSO can affect the brain.
Treatment regimen: Aged (9-12 month) females from both C57BL6/J as well as 3xTg-AD strains were randomly selected and placed in experimental groups. Treatment consisted of specific PRMT4 inhibitor TP-064 (Cat. No. 6008, Tocris, Minneapolis, MN) (Zhang, de Boer, van der Wel, Van Eck, & Hoekstra, 2021); (Zhong et al., 2018). The pharmacological mechanism of TP-064 has not been well-elucidated though it is thought to act as an allosteric inhibitor of the PRMT4 active site (Nakayama et al., 2018). Based on the pharmacokinetic data provided by the Structural Genomics Consortium (https://www.thesgc.org/), a dose of 30 mg/kg was selected. […] Final dose was calculated based on animal weight.
Capillary-phoresis immunoassay via ProteinSimple®: Quantification of all protein targets was achieved using Simple Western analysis in a Jess™ apparatus per the manufacturer's protocol (ProteinSimple, Bio-techne, Minneapolis, MN). […] Following homogenization and centrifugation (10,000×g, 5 min, 4° C.), protein concentration was determined in tissue protein supernatant samples using DC Protein Assay (Cat. No. 5000112, Bio-Rad Laboratories, Hercules, California) according to manufacturer instructions. […] Antibody diluent (ProteinSimple, Bio-techne, Minneapolis, MN) was used for all antibody dilutions as follows: PRMT4 (1:50, RRID: AB_2068436), PRMT6 (1:100, Cell Signaling Technology cat. 14641), eNOS (1:200, RRID: AB_10850618), nNOS (1:100, RRID: AB_2152488), iNOS (1:100, RRID: AB_10000625), DDAH2 (1:50, RRID: AB_2640442) Antibodies were detected using HRP-conjugated secondary anti-rabbit, and -mouse. […]

ICAM-1 = ICAM-1 level, protein chip assay; format: in vivo, mouse; details: aged 3xTg-AD female mice; cortex and hippocampus; 30 mg/kg, 7 days, IP
Description: FIGS. 19A-19F are six graphs showing PRMT4 inhibitor (TP-064) reduced ICAM-1, VCAM-1 and enhanced E-Cadherin protein levels in aged female 3xTg-AD mice. In FIGS. 19A-19D, aged 3xTg-AD female mice v. […] Adhesion molecules were assessed via protein chip assay in the cortex and hippocampus. * p<0.05 evaluated by one-way ANOVA with Tukey's post-hoc analyses.

[1] = aged 3xTg-AD female mice, 30 mg/kg for 7 days, normalized to total protein

CNCCN1CCC(c2cc(CN(C)C(=O)c3cccc(Oc4ccccc4)c3)ccn2)CC1 [TP-064, N-Methyl-N-((2-(1-(2-(methylamino)ethyl)piperidin-4-yl)pyridin-4-yl)methyl)-3-phenoxybenzamide]
GFAP level in cortex (GFAP): reduced | GFAP level in hippocampus (GFAP): reduced | PRMT4 expression in whole brain lysate (PRMT4; 3xTg-AD mice, 7.5, 15 and 30 mg/kg, 7 days, relative to untreated 3xTg-AD): reduced PRMT4 expression in whole brain lysate in a dose-dependent manner | cortical PRMT4 protein level (PRMT4; [1]): reduced | hippocampal PRMT4 protein level (PRMT4; [1]): reduced | ICAM-1 level (ICAM-1): decreased
